The values below come from US20090281174A1, “SENESCENCE INHIBITOR” (KAO CORPORATION, priority 2006, published 2009).

This assay concerns SAM-P1 male mice (mice of senescence-accelerated model). In words: Maximum force of soleus muscle under electrical stimulation in senescence-accelerated mice. The settings on record: after breeding for 9 weeks. Format: in vivo, mouse. How it is done: Thereafter, these mice were divided into the following groups (eight mice in each group): […] The mice of each group were subjected to a physical exercise at 10 m/min for 3 minutes in a running-water pool five times a day and four days a week. After breeding for nine weeks, a soleus muscle was removed from a mouse of each group through dissection and fixed to a transducer (FORT100, product of World Precision Instruments, Inc.) in Krebs solution of 37° C. (aeration: 95%-oxygen, 5%-carbon dioxide). Subsequently, under electrical stimulation (0.5 msec, 140 Hz), the maximum muscle force of the muscle sample was determined.

Turning to `CC(C)C[C@H](N)C(=O)O` [leucine, Leucine], the “Maximum soleus muscle force compared with SAM-P1 control group” value (Dunnet test) is “No significant difference”. For the setting “soleus muscle, electrical stimulation 0.5 msec 140 Hz, diet 0.35% of each ingredient”, the “Maximum muscle force” value is on record as 11.1 ± 0.7 g.
